Patent publication US6127136A, “Detection of dioxin-like compounds by detection of transformed Ah receptor/ARNT complex” (Paracelsian, Inc., priority 1996, dated 2000)

Key:
Type in all cases: biochemical, guinea pig (hepatic cytosol)
[1] = biological target: T1, transformed Ah receptor/ARNT complex (Cavia porcellus, UniProt Q6J287); assay: Ah-ELISA, cytosol volume, time and temperature optimization; parameters: from tissue; host or cells: hepatic cytosol of male Hartley guinea pigs (animals from Cornell Research Animal Resources)
Method: The reagents and ELISA plate were prepared as described in Example 8. The volume of cytosol, temperature of cytosol incubation and time of incubation were all varied independently. The test volume of cytosol was varied between 50 and 200 μl at 50 μl increments. […] The assay was with a cytosol incubation varying between 30 and 120 minutes at 30 minute increments.

[2] = biological target: T1, transformed Ah receptor/ARNT complex; assay: Ah-ELISA, optimization of salt concentration; parameters: from tissue; host or cells: hepatic cytosol of male Hartley guinea pigs (animals from Cornell Research Animal Resources)
Method: The reagents and ELISA plate were prepared as described in Example 7, except the anti-Rabbit/alkaline phosphatase (Sigma, St. Louis, Mo.) was prepared to make a 1:4000 dilution. The final DRE dilution was 31.2 pmol per well. The final dilution of anti-ARNT was 0.275 ug per mL. The DRE was 1/32 of the highest dilution, which corresponds to a final dilution of 0.25 nmol/uL hybridized DRE x 10.6 uL DRE/1700 uL cytosol or 31.2 pmol per well. All other concentrations were the same. All assays were run at approximately 30° C.
The salt concentration during cytosol incubation was varied from 150 mM to 255 mM NaCl at 15 mM increments with a 0 mM NaCl control for with either DMSO or TCDD to determine the effect of salt concentration on background detection. Thus, the assay was run on samples with DMSO (-) or TCDD (+) added at the concentrations taught in Example 7.

[3] = tested on: transformed AhR/ARNT complex; assay: size exclusion of biotin-DRE/AhR/ARNT/anti-ARNT complex followed by capture on neutravidin ELISA plates; conditions: FIG. 5, OD at 405 nm
Method: Size-exclusion of biotin-DRE/AhR/ARNT/anti-ARNT complex followed by capture on neutravidin ELISA plates and detection with anti-rabbit/alkaline phosphatase conjugate.
Diethanolamine buffer was prepared by dissolving 0.4 g Magnesium chloride hexahydrate, 0.8 g sodium azide, 338 mL diethanolamine in 2.5 L deionized water, adjusting pH to 9.8 with concentrated HCl, and adjusting volume to 4 liters.
PNPP stock was prepared fresh by dissoving two 15 mg tablets of para-nitro phenyl phosphate (Sigma, St. Louis, Mo.) in 20 mL diethanolamine buffer.
The same size exclusion column operating conditions were used as described above, except the DRE used was B-ERD oligo (SEQ. ID. #3) and DRE-D oligo (SEQ. ID #1)hybridized as described in methods. […]
Samples were incubated for 2 hours at room temperature as described above to achieve transformation/binding events then put on ice. […] The plate was incubated 2 hours, washed 3 times with 300 uL per well PBS plus 0.02% Tween 20, incubated 1 hour with 200 uL per well 1:1000 anti-rabbit/alkaline phosphatase conjugate in PBS plus 0.02% Tween 20 and 0.1% bovine serum albumin, washed 3 times with 300 uL per well PBS plus Tween 20 and developed 2 hours with 200 uL per well PnPP stock, and the optical density read at 405 nm in an ELISA spectrophotometer.

T1 sequence (Q6J287 1-846): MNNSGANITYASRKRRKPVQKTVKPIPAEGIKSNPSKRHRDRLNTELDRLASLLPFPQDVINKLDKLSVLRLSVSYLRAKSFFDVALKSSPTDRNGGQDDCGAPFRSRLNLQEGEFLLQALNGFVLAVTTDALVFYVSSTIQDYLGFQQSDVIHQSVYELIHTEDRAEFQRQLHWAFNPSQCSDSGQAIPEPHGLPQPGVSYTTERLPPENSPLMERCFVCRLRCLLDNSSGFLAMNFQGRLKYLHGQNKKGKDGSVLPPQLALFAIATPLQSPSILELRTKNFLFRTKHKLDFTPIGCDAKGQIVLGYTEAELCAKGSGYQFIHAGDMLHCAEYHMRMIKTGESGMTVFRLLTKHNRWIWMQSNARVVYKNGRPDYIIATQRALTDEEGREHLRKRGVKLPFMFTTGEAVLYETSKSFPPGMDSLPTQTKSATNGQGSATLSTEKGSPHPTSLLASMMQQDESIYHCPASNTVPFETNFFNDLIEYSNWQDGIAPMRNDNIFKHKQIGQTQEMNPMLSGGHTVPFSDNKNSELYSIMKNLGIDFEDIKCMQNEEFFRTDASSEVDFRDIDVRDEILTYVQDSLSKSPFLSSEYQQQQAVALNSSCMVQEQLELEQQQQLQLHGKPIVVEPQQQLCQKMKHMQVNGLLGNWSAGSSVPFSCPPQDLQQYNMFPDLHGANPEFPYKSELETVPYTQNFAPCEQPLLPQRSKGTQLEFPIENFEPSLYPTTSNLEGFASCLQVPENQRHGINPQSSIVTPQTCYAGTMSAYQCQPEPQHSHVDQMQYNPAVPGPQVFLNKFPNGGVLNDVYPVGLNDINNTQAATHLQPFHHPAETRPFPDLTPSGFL
T1 sequence (Q0WXX3 1-790 partner): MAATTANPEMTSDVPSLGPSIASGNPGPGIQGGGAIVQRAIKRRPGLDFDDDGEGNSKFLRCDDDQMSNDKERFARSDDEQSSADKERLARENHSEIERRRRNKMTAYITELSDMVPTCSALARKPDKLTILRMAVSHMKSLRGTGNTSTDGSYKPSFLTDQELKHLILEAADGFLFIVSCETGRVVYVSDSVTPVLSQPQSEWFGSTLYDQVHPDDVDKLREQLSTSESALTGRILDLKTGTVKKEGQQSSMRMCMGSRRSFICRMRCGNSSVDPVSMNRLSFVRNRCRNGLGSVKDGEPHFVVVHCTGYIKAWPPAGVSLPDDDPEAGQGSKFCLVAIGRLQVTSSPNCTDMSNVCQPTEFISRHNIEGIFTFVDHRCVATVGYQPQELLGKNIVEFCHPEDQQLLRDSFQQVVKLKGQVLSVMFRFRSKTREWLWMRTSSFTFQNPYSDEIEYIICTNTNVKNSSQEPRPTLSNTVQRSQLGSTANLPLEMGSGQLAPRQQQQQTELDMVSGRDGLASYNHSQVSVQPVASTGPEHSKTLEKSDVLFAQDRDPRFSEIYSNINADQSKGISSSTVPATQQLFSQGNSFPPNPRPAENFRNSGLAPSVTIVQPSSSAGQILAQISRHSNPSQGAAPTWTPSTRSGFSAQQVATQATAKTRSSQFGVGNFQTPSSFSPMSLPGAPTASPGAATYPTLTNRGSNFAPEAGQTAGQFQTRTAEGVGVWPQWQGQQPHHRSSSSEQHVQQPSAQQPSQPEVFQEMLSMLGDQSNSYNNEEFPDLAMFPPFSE

Clc1cc2c(cc1Cl)Oc1cc(Cl)c(Cl)cc1O2 [TCDD, 2,3,7,8-tetrachlorodibenzo-p-dioxin] was tested, and the “ave(+)-BG” value ([1]; 50 uL, 120 min, 30 C) was 1006, the difference ([1]; 50 uL, 120 min, 30 C) was 984 and the “ave(+)-BG” value ([1]; 100 uL, 120 min, 30 C) was 1463. For the same compound, the difference ([1]; 100 uL, 120 min, 30 C) was 1430, the “ave(+)-BG” value ([1]; 150 uL, 120 min, 30 C) was 1910 and the difference ([1]; 150 uL, 120 min, 30 C) was 1867. The “ave(+)-BG” value ([1]; 200 uL, 30 min, 30 C) was 394, the difference ([1]; 200 uL, 30 min, 30 C) was 359 and the “ave(+)-BG” value ([1]; 200 uL, 30 min, 38 C) was 525. The difference ([1]; 200 uL, 30 min, 38 C) was 497, the “ave(+)-BG” value ([1]; 200 uL, 60 min, 30 C) was 1324 and the difference ([1]; 200 uL, 60 min, 30 C) was 1288. For the same compound, the “ave(+)-BG” value ([1]; 200 uL, 90 min, 30 C) was 1882, the difference ([1]; 200 uL, 90 min, 30 C) was 1839 and the “ave(+)-BG” value ([1]; 200 uL, 120 min, 22 C) was 1924. For the same compound, the difference ([1]; 200 uL, 120 min, 22 C) was 1863, the “ave(+)-BG” value ([1]; 200 uL, 120 min, 30 C) was 2369 and the difference ([1]; 200 uL, 120 min, 30 C) was 2324. The “ave(+)-BG” value ([1]; 200 uL, 120 min, 35 C) was 959, the difference ([1]; 200 uL, 120 min, 35 C) was 898 and the DIFF ([2]; 0 mM NaCl) was 1879. For the same compound, the RATIO ([2]; 0 mM NaCl) was 6.298, the “ELISA signal (+)” value ([2]; 0 mM NaCl, TCDD (+)) was 2233 and the DIFF ([2]; 150 mM NaCl) was 2587. For the same compound, the RATIO ([2]; 150 mM NaCl) was 18.03, the “ELISA signal (+)” value ([2]; 150 mM NaCl, TCDD (+)) was 2739 and the DIFF ([2]; 165 mM NaCl) was 2625. The RATIO ([2]; 165 mM NaCl) was 21, the “ELISA signal (+)” value ([2]; 165 mM NaCl, TCDD (+)) was 2756 and the DIFF ([2]; 180 mM NaCl) was 2661. For the same compound, the RATIO ([2]; 180 mM NaCl) was 25.96, the “ELISA signal (+)” value ([2]; 180 mM NaCl, TCDD (+)) was 2767 and the DIFF ([2]; 195 mM NaCl) was 2609. The RATIO ([2]; 195 mM NaCl) was 26.35, the “ELISA signal (+)” value ([2]; 195 mM NaCl, TCDD (+)) was 2712 and the DIFF ([2]; 210 mM NaCl) was 2215. The RATIO ([2]; 210 mM NaCl) was 26.29, the “ELISA signal (+)” value ([2]; 210 mM NaCl, TCDD (+)) was 2303 and the DIFF ([2]; 225 mM NaCl) was 1697. The RATIO ([2]; 225 mM NaCl) was 21.89, the “ELISA signal (+)” value ([2]; 225 mM NaCl, TCDD (+)) was 1779 and the DIFF ([2]; 240 mM NaCl) was 1333. For the same compound, the RATIO ([2]; 240 mM NaCl) was 16.76, the “ELISA signal (+)” value ([2]; 240 mM NaCl, TCDD (+)) was 1418 and the DIFF ([2]; 255 mM NaCl) was 1109. The RATIO ([2]; 255 mM NaCl) was 12.07, the “ELISA signal (+)” value ([2]; 255 mM NaCl, TCDD (+)) was 1210 and the DIFF ([2]; column S9) was 86.67. The RATIO ([2]; column S9) was 1.667, the “ELISA signal (+)” value ([2]; column S9, TCDD (+)) was 216.6 and the “salt concentration giving best ratio of background to detection of TCDD” value ([2]; during cytosol incubation) was 180-195 mM NaCl. For the same compound, the “TCDD-dependent peak, fractions” value [3] was 18-28 fractions.
